Data on 22 compounds can be found in patent US20240150293A1, “SPIROCYCLOHEXANE DERIVATIVES, PHARMACEUTICAL COMPOSITIONS CONTAINING THEM AND THEIR USES AS ANTI-APOPTOTIC INHIBITORS” (LES LABORATOIRES SERVIER, priority 2021, published 2024).

For assay [1], the target named is Cy5-labelled Mcl1 (amino acids 171-321) C286S protein (UniProtKB Q07820) (Homo sapiens (Human), UniProt Q07820, C286S). Kind of assay: Inhibition of Mcl-1 by the fluorescence quenching assay (Example A, Method B). The assay is classed as binding. The procedure, abridged: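 Eleven-point compound series incubated 2 h at room temperature with 1 nM Cy5-tagged protein and quencher-labelled PUMA peptide at 10, 20 or 400 nM in HEPES/NaCl/Tween 20, pH 7.4, 5% DMSO. IC50 for 50% fluorescence increase by 4-parameter fit, then Ki derived (complete cKi or estimated eKi).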

A further assay concerns NCI-H929 cell lines. Put plainly: In vitro cytotoxicity, CellTiter-Glo (CTG) assay (Example B, Method B). Conditions: NCI-H929 cells, 48 h incubation, read-out: C50. The assay is classed as cell-based. The method, then:
Cellular viability was monitored with the cell viability assay (Cell Titer-Glo®) on NCI-H929 cell lines. The CellTiter-Glo® (CTG) Luminescent Cell Viability Assay (from Promega) is a homogeneous method to determine the number of viable cells in culture based on quantitation of the ATP present, which signals the presence of metabolically active cells.
Concentration response of test compounds are performed with 10 mM stock solutions (DMSO), 11-points curve, in a 384-well compound plate. The assay plate is prepared by stamping 120 nL from compound dilution plate of all different concentrations (e.g. 10 mM to have final 30 μM assay test) into a cell culture microplate, using Echo acoustic liquid handling (Labcyte, Beckman). 40 μl of cell solution is added and cells are incubated with compounds for 48 h at 37° C., 5% CO2. CTG was added to the cells (according to the manufacturer instructions) and luminescence intensity was recorded using the Pherastar plate reader (BMG).
This assay provides in vitro cellular efficacy of compounds of Formula (I) tested, measuring the C50, defined as the concentration needed to reach 50% of the cellular viability.

In assay [2] the test system is H929 multiple myeloma tumor line. Put plainly: In vitro cytotoxicity, MTT assay (Example B, Method A). The assay is classed as cell-based. Conditions: Homo sapiens, NCI-H929, 48 h, H929 cells, 48 hours exposure, read-out: C50. How it is done: The cytotoxicity studies were carried out on the H929 multiple myeloma tumor line.
The cells are distributed onto microplates and exposed to the test compounds for 48 hours. The cell viability is then quantified by a colorimetric assay, the Microculture Tetrazolium Assay (Carmichael et al, Cancer Res. 1987, 47, 939-942).
The results are expressed in C50 which means concentration corresponding to […] of effect/inhibition.

Where two headings read alike, the source gives them in different places.

Chain of Cy5-labelled Mcl1 (amino acids 171-321) C286S protein (Q07820 171-321 C286S): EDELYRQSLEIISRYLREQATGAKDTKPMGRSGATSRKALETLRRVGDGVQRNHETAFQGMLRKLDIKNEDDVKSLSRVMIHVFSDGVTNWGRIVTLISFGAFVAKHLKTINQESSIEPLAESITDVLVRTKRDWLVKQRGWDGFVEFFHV

Consider `CC1CCNc2nccc(OC[C@H](C)C[C@H]3Cc4ccccc4[C@]34CC[C@@](Nc3cccc(Cl)c3)(C(=O)O)CC4)c21` (single isomer, unassigned) [Example 641], for which, in assay [1], the inhibition constant (Ki) turned out to be 14 nM. Further, in the assay on NCI-H929 cell lines, the IC50 was 3030 nM.

For the compound `CC1CCNc2nccc(OC[C@H](C)C[C@H]3Cc4ccccc4[C@]34CC[C@@](Nc3cccc(Cl)c3)(C(=O)O)CC4)c21` (single isomer, unassigned) [Example 642], the Ki in assay [1] was determined as 0.724 nM. For the same compound, the IC50 in the assay with NCI-H929 cell lines worked out at 460 nM.

For `C[C@@H](COc1ccnc2c1[C@H](C)CCC2)CC1Cc2c(Cl)c(Cl)ccc2[C@]12CC[C@@](Nc1cccc(Cl)c1)(C(=O)O)CC2` (single isomer, unassigned) [Example 751], in assay [1], the Ki was 0.644 nM. Besides, the IC50 in the assay with NCI-H929 cell lines (Homo sapiens, NCI-H929, 48 h) was 279 nM.

In the case of `C[C@@H](COc1ccnc2c1[C@H](C)CCC2)CC1Cc2c(Cl)c(Cl)ccc2[C@]12CC[C@@](Nc1cccc(Cl)c1)(C(=O)O)CC2` (single isomer, unassigned) [Example 752], in assay [1], the Ki stood at 0.321 nM. Moreover, in the assay on NCI-H929 cell lines, the IC50 worked out at 344 nM.

On to `CC(=O)c1cc(C)c2c(c1)[C@]1(CC[C@@](Nc3cccc(Cl)c3)(C(=O)O)CC1)C(C[C@@H](C)COc1ccnc3c1[C@H](C)CCC3)C2` (single isomer, unassigned) [Example 757], for which the Ki in assay [1] amounted to 1.9 nM. The IC50 in the assay with NCI-H929 cell lines came out at 200 nM.

`CC(=O)c1cc(C)c2c(c1)[C@]1(CC[C@@](Nc3cccc(Cl)c3)(C(=O)O)CC1)C(C[C@@H](C)COc1ccnc3c1[C@H](C)CCC3)C2` (single isomer, unassigned) [Example 758]: in assay [1], the Ki amounted to 1.19 nM. In the assay on NCI-H929 cell lines, the IC50 is 97.2 nM.

With `CC(O)c1ccc2c(c1)[C@]1(CC[C@@](Nc3cccc(Cl)c3)(C(=O)O)CC1)[C@@H](C[C@@H](C)COc1ccnc3c1[C@H](C)CCC3)C2` (single isomer, unassigned) [Example 859], the Ki in assay [1] was 0.0375 nM. For the same compound, the IC50 with NCI-H929 cell lines worked out at 43.7 nM.

With `CC(O)c1ccc2c(c1)[C@]1(CC[C@@](Nc3cccc(Cl)c3)(C(=O)O)CC1)[C@@H](C[C@@H](C)COc1ccnc3c1[C@H](C)CCC3)C2` (single isomer, unassigned) [Example 860], the Ki in assay [1] was found to be 0.0188 nM. In the assay on NCI-H929 cell lines, the IC50 turned out to be 93 nM.

With `CC1Oc2cc3c(cc2O1)[C@]1(CC[C@@](Nc2cccc(Cl)c2)(C(=O)O)CC1)[C@@H](C[C@@H](C)COc1ccnc2c1[C@H](C)CCC2)C3` (single isomer, unassigned) [Example 965], the Ki in assay [1] was 0.0173 nM. In the assay on NCI-H929 cell lines (Homo sapiens, NCI-H929, 48 h), the IC50 turned out to be 68.8 nM.

On to `CC1Oc2cc3c(cc2O1)[C@]1(CC[C@@](Nc2cccc(Cl)c2)(C(=O)O)CC1)[C@@H](C[C@@H](C)COc1ccnc2c1[C@H](C)CCC2)C3` (single isomer, unassigned) [Example 966], for which, in assay [1], the Ki amounted to 0.0267 nM. For the same compound, in the assay on NCI-H929 cell lines, the IC50 turned out to be 48.3 nM.

Consider `CCC1Oc2cc3c(cc2O1)[C@]1(CC[C@@](Nc2cccc(Cl)c2)(C(=O)O)CC1)[C@@H](C[C@@H](C)COc1ccnc2c1[C@H](C)CCC2)C3` (single isomer, unassigned) [Example 967], for which the inhibition constant (Ki) in assay [1] is 0.0263 nM. Also, in the assay on NCI-H929 cell lines (Homo sapiens, NCI-H929, 48 h), the IC50 stood at 137 nM.

As for `CCC1Oc2cc3c(cc2O1)[C@]1(CC[C@@](Nc2cccc(Cl)c2)(C(=O)O)CC1)[C@@H](C[C@@H](C)COc1ccnc2c1[C@H](C)CCC2)C3` (single isomer, unassigned) [Example 968], in assay [1], the Ki worked out at 0.0405 nM. For the same compound, in the assay with NCI-H929 cell lines, the IC50 is 72.7 nM.

Take `CC(O)c1ccc2c(c1)[C@]1(CC[C@@](Nc3cccc(Cl)c3)(C(=O)O)CC1)[C@@H](C[C@@H](C)COc1ccnc3c1[C@H](C)CC[C@H]3C)C2` (stereo partly drawn) [Example 865, (1r,2′S,4S)-4-(3-chloroanilino)-2′-[(2R)-3-{[(5R,8R)-5,8-dimethyl-5,6,7,8-tetrahydroquinolin-4-yl]oxy}-2-methylpropyl]-6′-(1-hydroxyethyl)-2′,3′-dihydrospiro[cyclohexane-1,1′-indene]-4-carboxylic acid]: the Ki in assay [1] is 0.204 nM. Moreover, in assay [2], the IC50 came to 45.9 nM.

`C[C@@H](COc1ccnc2c1[C@H](C)CCC2)C[C@H]1Cc2ccc(C=O)cc2[C@]12CC[C@@](Nc1cccc(Cl)c1)(C(=O)O)CC2` [Example 867, (1r,2′S,4S)-4-(3-chloroanilino)-6′-formyl-2′-[(2R)-2-methyl-3-{[(5R)-5-methyl-5,6,7,8-tetrahydroquinolin-4-yl]oxy}propyl]-2′,3′-dihydrospiro[cyclohexane-1,1′-indene]-4-carboxylic acid]: the Ki in assay [1] amounted to 0.0988 nM. For the same compound, the IC50 in assay [2] amounted to 73 nM.

Turning to `C[C@@H](COc1ccnc2c1[C@H](C)CCC2)CC1=Cc2ccc(CO)cc2[C@]12CC[C@@](Nc1cccc(Cl)c1)(C(=O)O)CC2` [Example 868, (1r,4R)-4-(3-chloroanilino)-6′-(hydroxymethyl)-2′-[(2R)-2-methyl-3-{[(5R)-5-methyl-5,6,7,8-tetrahydroquinolin-4-yl]oxy}propyl]spiro[cyclohexane-1,1′-indene]-4-carboxylic acid], the inhibitory constant (Ki) in assay [1] is 0.19 nM. The IC50 in assay [2] is 231 nM.

Consider `C[C@@H](COc1ccnc2c1[C@H](C)CCC2)C[C@@H]1Cc2ccc(CO)cc2[C@]12CC[C@@](Nc1cccc(Cl)c1)(C(=O)O)CC2` [Example 869, (1r,2′R,4R)-4-(3-chloroanilino)-6′-(hydroxymethyl)-2′-[(2R)-2-methyl-3-{[(5R)-5-methyl-5,6,7,8-tetrahydroquinolin-4-yl]oxy}propyl]-2′,3′-dihydrospiro[cyclohexane-1,1′-indene]-4-carboxylic acid], for which the Ki in assay [1] amounted to 0.384 nM. The IC50 in assay [2] was determined as 193 nM.

`C[C@@H](COc1ccnc2c1[C@H](C)CCC2)C[C@@H]1Cc2ccc(COC3CCCO3)cc2[C@]12CC[C@@](Nc1cccc(Cl)c1)(C(=O)O)CC2` (stereo partly drawn) [Example 871, (1r,2′R,4R)-4-(3-chloroanilino)-2′-[(2R)-2-methyl-3-{[(5R)-5-methyl-5,6,7,8-tetrahydroquinolin-4-yl]oxy}propyl]-6′-{[(oxolan-2-yl)oxy]methyl}-2′,3′-dihydrospiro[cyclohexane-1,1′-indene]-4-carboxylic acid]: in assay [1], the Ki amounted to 0.737 nM. The IC50 in assay [2] was found to be 114 nM.

On to `CC(=O)c1cc2c(cc1F)C=C(C[C@@H](C)COc1ccnc3c1[C@@H](C)CCC3)[C@]21CC[C@](Nc2cccc(Cl)c2)(C(=O)O)CC1` [Example 873, (1r,4R)-6′-acetyl-4-(3-chloroanilino)-5′-fluoro-2′-[(2R)-2-methyl-3-{[(5S)-5-methyl-5,6,7,8-tetrahydroquinolin-4-yl]oxy}propyl]spiro[cyclohexane-1,1′-indene]-4-carboxylic acid], for which the Ki in assay [1] was 4.17 nM. Further, in assay [2], the IC50 is 341 nM.

Turning to `COCc1ccc2c(c1)[C@]1(CC[C@@](Nc3cccc(Cl)c3)(C(=O)O)CC1)[C@H](C[C@@H](C)COc1ccnc3c1[C@H](C)CCC3)C2` [Example 920, (1r,2′R,4R)-4-(3-chloroanilino)-6′-(methoxymethyl)-2′-[(2R)-2-methyl-3-{[(5R)-5-methyl-5,6,7,8-tetrahydroquinolin-4-yl]oxy}propyl]-2′,3′-dihydrospiro[cyclohexane-1,1′-indene]-4-carboxylic acid], in assay [1], the Ki was 3.85 nM. For the same compound, in assay [2], the IC50 came out at 104 nM.

In the case of `C[C@@H](COc1ccnc2c1[C@H](C)CCC2)C[C@H]1Cc2cc3c(cc2[C@]12CC[C@@](Nc1cccc(Cl)c1)(C(N)=O)CC2)OCO3` [Example 954, (1r,4S,6′S)-4-(3-chloroanilino)-6′-[(2R)-2-methyl-3-{[(5R)-5-methyl-5,6,7,8-tetrahydroquinolin-4-yl]oxy}propyl]-6′,7′-dihydro-2′H-spiro[cyclohexane-1,5′-indeno[5,6-d][1,3]dioxole]-4-carboxamide], in the assay with NCI-H929 cell lines (Homo sapiens, NCI-H929, 48 h), the IC50 amounted to 2790 nM.

For `CNC(=O)[C@]1(Nc2cccc(Cl)c2)CC[C@@]2(CC1)c1cc3c(cc1C[C@@H]2C[C@@H](C)COc1ccnc2c1[C@H](C)CCC2)OCO3` [Example 955, (1r,4S,6′S)-4-(3-chloroanilino)-N-methyl-6′-[(2R)-2-methyl-3-{[(5R)-5-methyl-5,6,7,8-tetrahydroquinolin-4-yl]oxy}propyl]-6′,7′-dihydro-2′H-spiro[cyclohexane-1,5′-indeno[5,6-d][1,3]dioxole]-4-carboxamide], the IC50 with NCI-H929 cell lines (Homo sapiens, NCI-H929, 48 h) amounted to 11300 nM.

With `C[C@@H](COc1ccnc2c1[C@H](C)CCC2)C[C@H]1Cc2cc3c(cc2[C@]12CC[C@@](Nc1cccc(Cl)c1)(C(=O)N(C)C)CC2)OCO3` [Example 956, (1r,4S,6′S)-4-(3-chloroanilino)-N,N-dimethyl-6′-[(2R)-2-methyl-3-{[(5R)-5-methyl-5,6,7,8-tetrahydroquinolin-4-yl]oxy}propyl]-6′,7′-dihydro-2′H-spiro[cyclohexane-1,5′-indeno[5,6-d][1,3]dioxole]-4-carboxamide], the IC50 in the assay on NCI-H929 cell lines (Homo sapiens, NCI-H929, 48 h) amounted to 14500 nM.
